According to ChEMBL document CHEMBL1201862, “PubChem BioAssay data set” (2004):
Activity calls are given as the source filed them.

Columns and labels:
[1] = viability loss in HEK293 cells – cell-based, plate reader, cherry-picked samples, cytotoxicity control, dose response (AID 743446); assay type: functional
[2] = A549 cell cytotoxicity, dose response, cytotoxicity control, plate reader, cherry-pick, antagonist series (AID 743412); assay type: functional, cell-based
[3] = DRD fibroblast viability loss – cell-based, non-viral oncogenic, luminescence, dose response (AID 1934); assay type: functional; details: Homo sapiens
BJ [4] = test: BJ-TERT fibroblast viability loss – cell-based, RAS-independent, luminescence, dose response (AID 1933); assay type: functional; details: Homo sapiens
[5] = toxicity toward HepG2 liver cells – cell-based, plate reader, cherry-pick, antagonist series, cytotoxicity control, dose response (AID 743416); assay type: functional
BJ [6] = test: BJ-TERT-LT-ST fibroblast viability loss – cell-based, RAS-independent, luminescence, dose response (AID 1935); assay type: functional; details: Homo sapiens;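 further: BJ fibroblasts immortalized with TERT plus LT and ST oncogenes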
[7] = blockers of bursicon-stimulated LGR2 cAMP reporter – cell-based, HEK293, CRE-luciferase reporter, cherry pick, set 2, dose response (AID 743343); assay type: functional;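 further: transfected cells were stimulated with diluted bursicon conditioned medium after compound addition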
[8] = blockade of melanocortin 4 receptor signaling – cell-based, plate reader, cherry pick, counter-screen for LGR2 antagonist project, dose response (AID 743444); assay type: functional;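 further: transfected HEK 293 cells stimulated with alpha-MSH peptide; potency of inhibitors of the alpha-MSH evoked signal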
[9] = Luminescence Cell-Based Dose Response HTS to Identify Inhibitors of 5'UTR Stem-Loop Driven Prion Protein mRNA Translation in H4 Neuroglioblastoma Cells. [Related pubchem assays: 1827 (Project Summary), 1813 (Primary HTS)]; assay type: functional
BJ [10] = test: cells; assay type: functional, cell-based; details: Homo sapiens
[11] = alpha-synuclein stem-loop luciferase translation blockers – H4 neuroglioma cells, luminescence, confirmation (AID 1988); assay type: functional, cell-based
[12] = luciferase reporter signal suppression in cells – H4 neuroglioma cells, luminescence, dose response (AID 1990); assay type: functional, cell-based
[13] = OVCAR-3 cell viability loss – plate reader, dry powder samples, PAX8 inhibitor project, dose response (AID 743044); assay type: functional, cell-based
[14] = general cell-killing toxicity readout – plate reader, dry powder samples, cytotoxicity control for PAX8 inhibitor project, dose response (AID 743021); assay type: functional, cell-based
Paired box protein Pax-8 = Paired box protein Pax-8 (Homo sapiens, UniProt Q06710); test: PAX8 transcriptional activity inhibition in RMG-I – RMG-I cells, luciferase, cherry-pick, dose response (AID 687027); assay type: functional, cell-based;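 further: luciferase reporter driven by Pax8 target thyroperoxidase promoter measured by SteadyGlo luminescence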
[15] = IGROV1 cell killing – plate reader, dry powder samples, PAX8 inhibitor project, dose response (AID 743043); assay type: functional, cell-based; details: IGROV-1
[16] = OVCAR8 cell viability loss – plate reader, dry powder samples, PAX8 project, dose response (AID 743197); assay type: functional, cell-based; details: OVCAR-8
[17] = molecular target: T1, Adenosylmethionine-8-amino-7-oxononanoate aminotransferase (Mycobacterium tuberculosis, UniProt P9WQ81); test: Mycobacterium tuberculosis BioA enzyme inhibitor Measured in Biochemical System Using Plate Reader - 2163-02_Inhibitor_Dose_CherryPick_Activity.; assay type: functional, Mycobacterium tuberculosis UT205
T1 sequence (P9WQ81 whole entry): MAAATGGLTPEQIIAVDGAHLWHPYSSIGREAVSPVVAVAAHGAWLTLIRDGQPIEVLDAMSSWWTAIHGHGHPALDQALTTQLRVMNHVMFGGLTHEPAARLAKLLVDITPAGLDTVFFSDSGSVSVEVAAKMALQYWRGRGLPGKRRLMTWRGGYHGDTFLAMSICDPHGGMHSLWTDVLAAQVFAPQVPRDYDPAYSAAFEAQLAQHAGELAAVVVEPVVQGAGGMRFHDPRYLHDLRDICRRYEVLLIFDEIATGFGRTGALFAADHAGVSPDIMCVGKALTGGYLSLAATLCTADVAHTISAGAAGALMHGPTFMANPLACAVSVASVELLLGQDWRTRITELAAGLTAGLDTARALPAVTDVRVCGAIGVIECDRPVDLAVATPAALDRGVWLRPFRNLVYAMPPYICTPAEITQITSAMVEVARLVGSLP

[18] = M. tuberculosis H37Rv growth inhibitors, H37Rv strain (AID 1626); assay type: functional
[19] = molecular target: T2, Polyadenylate-binding protein 1 (Homo sapiens, UniProt P11940); test: MLLE binding blockers, Cy5 peptide tracer – biochemical, fluorescence polarization, Cy5-PAM2 peptide, secondary, miRNA deadenylation inhibitor project, dose response (AID 602260); assay type: functional; details: read-out: IC50_Mean
[20] = molecular target: T2, Polyadenylate-binding protein 1; test: MLLE domain peptide-binding blockers, IC50 – biochemical, fluorescence polarization, FITC-PAM2 peptide, dose response (AID 602259); assay type: functional; details: read-out: IC50_Mean
[21] = molecular target: T3, Mannose-6-phosphate isomerase (Homo sapiens, UniProt P34949); test: MPI inhibition at elevated mannose 6-phosphate – biochemical, fluorescence intensity, high mannose 6-phosphate, primary screen (AID 1220)
T3 sequence (P34949 whole entry): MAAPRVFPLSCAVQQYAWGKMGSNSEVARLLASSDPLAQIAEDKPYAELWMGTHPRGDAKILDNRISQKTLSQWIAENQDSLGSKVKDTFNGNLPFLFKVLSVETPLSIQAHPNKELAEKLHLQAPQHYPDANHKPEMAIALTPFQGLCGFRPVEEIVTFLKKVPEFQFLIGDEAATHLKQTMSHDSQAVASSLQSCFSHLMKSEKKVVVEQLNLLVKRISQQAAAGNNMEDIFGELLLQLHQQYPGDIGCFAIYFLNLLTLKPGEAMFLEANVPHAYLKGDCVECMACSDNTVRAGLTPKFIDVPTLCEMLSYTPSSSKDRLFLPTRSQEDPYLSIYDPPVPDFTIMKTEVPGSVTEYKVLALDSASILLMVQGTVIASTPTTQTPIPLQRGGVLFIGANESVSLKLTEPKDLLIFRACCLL

[22] = molecular target: Disintegrin and metalloproteinase domain-containing protein 17 (Homo sapiens, UniProt P78536); test: inhibition of ADAM17 substrate cleavage – biochemical, quenched FRET substrate, counter-screen for ADAM10 exosite inhibitor project, dose response (AID 743253)
H9c2 = test: cells; assay type: functional, cell-based; details: Rattus norvegicus, H9c2, Myocardium

T2 sequence (P11940 whole entry, the tested form may be a part): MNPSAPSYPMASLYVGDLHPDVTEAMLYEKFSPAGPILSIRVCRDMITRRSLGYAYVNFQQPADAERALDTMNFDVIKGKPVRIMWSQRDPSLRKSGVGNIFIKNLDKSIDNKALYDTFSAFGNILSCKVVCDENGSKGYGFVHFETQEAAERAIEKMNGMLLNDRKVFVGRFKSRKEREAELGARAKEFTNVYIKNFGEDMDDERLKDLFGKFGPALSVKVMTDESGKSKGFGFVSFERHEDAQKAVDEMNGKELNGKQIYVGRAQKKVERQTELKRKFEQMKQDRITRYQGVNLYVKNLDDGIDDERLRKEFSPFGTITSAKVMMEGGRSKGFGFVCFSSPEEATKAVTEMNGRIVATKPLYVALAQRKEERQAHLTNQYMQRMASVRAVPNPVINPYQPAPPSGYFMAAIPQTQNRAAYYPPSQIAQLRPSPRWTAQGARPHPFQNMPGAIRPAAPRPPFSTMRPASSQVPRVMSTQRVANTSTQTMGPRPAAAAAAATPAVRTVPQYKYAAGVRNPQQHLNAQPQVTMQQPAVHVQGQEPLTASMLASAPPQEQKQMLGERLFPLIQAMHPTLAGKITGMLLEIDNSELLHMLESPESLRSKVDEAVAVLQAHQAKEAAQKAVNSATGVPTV
Paired box protein Pax-8, sequence (Q06710 whole entry): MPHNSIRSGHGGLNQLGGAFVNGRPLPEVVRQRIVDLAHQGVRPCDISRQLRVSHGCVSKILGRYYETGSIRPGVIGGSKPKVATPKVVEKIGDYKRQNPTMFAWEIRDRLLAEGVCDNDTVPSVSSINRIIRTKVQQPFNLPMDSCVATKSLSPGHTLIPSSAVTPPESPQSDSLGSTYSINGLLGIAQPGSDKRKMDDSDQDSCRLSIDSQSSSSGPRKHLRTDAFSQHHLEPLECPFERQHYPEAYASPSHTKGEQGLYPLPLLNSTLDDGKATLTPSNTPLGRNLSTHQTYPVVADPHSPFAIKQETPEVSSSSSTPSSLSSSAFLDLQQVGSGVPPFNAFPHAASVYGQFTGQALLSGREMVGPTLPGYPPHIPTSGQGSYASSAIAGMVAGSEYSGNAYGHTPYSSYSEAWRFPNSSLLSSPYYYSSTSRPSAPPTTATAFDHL
Disintegrin and metalloproteinase domain-containing protein 17, sequence (P78536 whole entry, the tested form may be a part): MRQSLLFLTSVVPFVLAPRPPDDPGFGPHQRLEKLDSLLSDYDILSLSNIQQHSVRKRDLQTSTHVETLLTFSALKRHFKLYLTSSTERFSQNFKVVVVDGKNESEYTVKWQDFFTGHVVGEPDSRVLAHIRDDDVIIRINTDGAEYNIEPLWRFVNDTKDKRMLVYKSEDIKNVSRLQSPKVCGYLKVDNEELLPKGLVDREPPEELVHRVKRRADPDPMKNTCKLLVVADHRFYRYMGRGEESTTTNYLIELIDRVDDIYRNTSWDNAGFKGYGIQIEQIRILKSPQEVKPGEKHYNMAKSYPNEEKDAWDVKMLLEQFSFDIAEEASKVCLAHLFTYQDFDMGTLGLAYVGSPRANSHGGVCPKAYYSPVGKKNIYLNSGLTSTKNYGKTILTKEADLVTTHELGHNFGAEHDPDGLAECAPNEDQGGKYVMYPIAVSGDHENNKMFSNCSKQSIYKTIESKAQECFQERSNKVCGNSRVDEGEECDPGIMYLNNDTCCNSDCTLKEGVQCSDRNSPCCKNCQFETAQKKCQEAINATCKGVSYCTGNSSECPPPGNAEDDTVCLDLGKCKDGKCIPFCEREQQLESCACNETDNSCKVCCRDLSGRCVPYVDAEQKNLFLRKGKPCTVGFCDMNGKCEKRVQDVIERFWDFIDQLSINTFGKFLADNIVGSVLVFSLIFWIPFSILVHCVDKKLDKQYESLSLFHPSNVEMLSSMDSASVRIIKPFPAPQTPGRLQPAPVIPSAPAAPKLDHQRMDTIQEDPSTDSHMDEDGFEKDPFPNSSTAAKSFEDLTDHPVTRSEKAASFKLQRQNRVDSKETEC

## CCOC(=O)c1cnc(Nc2nc3ccccc3o2)nc1C
[1]
  AC50: 51.2 µM (active)
[2]
  AC50: 16.9 µM (active)
[3]
  EC50: 11.7 µM (active)
BJ [4]
  EC50: 11.1 µM (inconclusive)
[5]
  AC50: 5.13 µM (active)
BJ [6]
  EC50: > 150 µM (inconclusive)
[7]
  AC50: 1.11 µM (active)
[8]
  AC50: 1.56 µM (active)
[9]
  EC50: 0.35 µM (active)
BJ [10]
  EC50: 17 µM (active)
[11]
  EC50: 0.278 µM (active)
[12]
  EC50: 0.382 µM (active)

## COc1ccc(NC(=O)Nc2ccc3c(c2)C(=O)N([C@H](C)CO)C[C@@H](C)[C@H](CN(C)Cc2ccc(C(F)(F)F)cc2)OCCCC[C@H](C)O3)cc1
[13]
  AC50: 20.5 µM (active)
[14]
  AC50: 70 µM (active)
Paired box protein Pax-8
  AC50: 5.71 µM (active)
[15]
  AC50: 23 µM (active)
[16]
  AC50: 33.1 µM (active)

## Oc1nc2ccccc2n1C1CCN(C(CCc2ccccc2)c2nnnn2C2CCCCC2)CC1 (centres undefined)
[1]
  AC50: 12.8 µM (active)
[2]
  AC50: 15.8 µM (active)
[5]
  AC50: 30.6 µM (active)
[7]
  AC50: 20.3 µM (active)
[8]
  AC50: 14.1 µM (active)

## CCOC(=O)c1ccc2c(c1)nc(SCc1cn3ccsc3n1)n2CC
[17]
  AC50: 1.16 µM (active)

## COC(=O)c1cccc(NC(=O)c2ccc(S(=O)(=O)N(C)c3ccccc3OC)cc2)c1
[1]
  AC50: 35.8 µM (active)
[2]
  AC50: 22.7 µM (active)
[5]
  AC50: 28.9 µM (active)
[7]
  AC50: 6.56 µM (active)
[8]
  AC50: 7.98 µM (active)

## O=C(Nc1nc2ccccc2s1)C1c2ccccc2Oc2ccccc21
[18]
  IC50: > 100 µM (active)

## Nc1cccnc1Sc1cccc(Cl)c1
[19]
  IC50: > 66 µM (inactive)
[20]
  IC50: > 66 µM (inactive)
[21]
  IC50: > 50 µM (not active)

## O=C1OCCN1C(=O)[C@H]1[C@H](c2ccc([N+](=O)[O-])cc2)C(c2ccc(F)cc2)=NN1c1ccc(Br)cc1
[22]
  IC50: > 69.5 µM (inactive)
H9c2
  IC50: > 79 µM (inactive)
